Test results: US10168342B2, “Lipid probes and uses thereof” (THE SCRIPPS RESEARCH INSTITUTE, priority 2015, dated 2019)
Read-outs that look alike come from different tables or passages of the source.

Legend:
[1] = target: T1, AEA-DA lipid probe targets in Neuro2a cells (Mus musculus, UniProt Q8VC28)
T1 sequence (Q8VC28 1-323): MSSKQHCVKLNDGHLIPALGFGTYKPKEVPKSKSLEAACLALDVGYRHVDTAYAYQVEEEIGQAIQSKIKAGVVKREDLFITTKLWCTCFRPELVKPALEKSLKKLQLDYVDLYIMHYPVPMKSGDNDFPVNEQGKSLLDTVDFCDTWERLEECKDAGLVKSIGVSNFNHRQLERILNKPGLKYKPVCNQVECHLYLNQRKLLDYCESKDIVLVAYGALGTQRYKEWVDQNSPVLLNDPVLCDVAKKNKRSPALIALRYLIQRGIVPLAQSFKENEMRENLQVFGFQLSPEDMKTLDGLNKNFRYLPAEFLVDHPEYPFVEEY

[2] = target: T2, AEA-DA lipid probe targets in Neuro2a cells (Mus musculus, UniProt Q91V01); details: for SILAC ratio, LPCAT3 (Q6P1A2): Neuro2a cells, AEA-DA probe
T2 sequence (Q91V01 1-487): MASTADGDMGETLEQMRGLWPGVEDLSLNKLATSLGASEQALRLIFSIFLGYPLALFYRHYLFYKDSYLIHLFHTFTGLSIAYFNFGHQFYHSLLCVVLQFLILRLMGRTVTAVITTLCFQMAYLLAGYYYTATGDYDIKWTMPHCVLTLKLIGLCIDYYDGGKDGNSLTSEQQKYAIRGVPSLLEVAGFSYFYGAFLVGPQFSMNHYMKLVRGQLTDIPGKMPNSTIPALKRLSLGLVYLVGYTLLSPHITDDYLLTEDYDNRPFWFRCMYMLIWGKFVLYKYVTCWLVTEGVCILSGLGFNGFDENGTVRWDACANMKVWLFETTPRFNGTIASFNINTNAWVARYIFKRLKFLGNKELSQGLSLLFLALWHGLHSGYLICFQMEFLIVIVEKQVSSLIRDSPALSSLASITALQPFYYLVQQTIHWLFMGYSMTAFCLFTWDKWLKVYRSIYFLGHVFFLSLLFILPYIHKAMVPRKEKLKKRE

[3] = target: T3, AEA-DA lipid probe targets in Neuro2a cells (Mus musculus, UniProt Q80W54)
T3 sequence (Q80W54 1-475): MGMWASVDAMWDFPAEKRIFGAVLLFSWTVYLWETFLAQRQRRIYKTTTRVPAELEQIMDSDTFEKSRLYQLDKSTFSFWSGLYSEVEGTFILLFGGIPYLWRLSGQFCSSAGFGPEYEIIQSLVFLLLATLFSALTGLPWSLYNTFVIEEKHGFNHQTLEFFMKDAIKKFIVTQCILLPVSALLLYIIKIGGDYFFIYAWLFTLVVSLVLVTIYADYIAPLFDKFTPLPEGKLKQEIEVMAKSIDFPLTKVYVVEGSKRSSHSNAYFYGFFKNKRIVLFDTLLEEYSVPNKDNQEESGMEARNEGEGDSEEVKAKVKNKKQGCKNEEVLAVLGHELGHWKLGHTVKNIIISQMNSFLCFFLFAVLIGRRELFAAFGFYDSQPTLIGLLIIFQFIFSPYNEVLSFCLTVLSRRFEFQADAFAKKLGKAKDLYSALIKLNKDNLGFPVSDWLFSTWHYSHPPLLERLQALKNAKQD

[4] = target: T4, AEA-DA lipid probe targets in Neuro2a cells (Mus musculus, UniProt G5E829)
T4 sequence (G5E829 1-1220): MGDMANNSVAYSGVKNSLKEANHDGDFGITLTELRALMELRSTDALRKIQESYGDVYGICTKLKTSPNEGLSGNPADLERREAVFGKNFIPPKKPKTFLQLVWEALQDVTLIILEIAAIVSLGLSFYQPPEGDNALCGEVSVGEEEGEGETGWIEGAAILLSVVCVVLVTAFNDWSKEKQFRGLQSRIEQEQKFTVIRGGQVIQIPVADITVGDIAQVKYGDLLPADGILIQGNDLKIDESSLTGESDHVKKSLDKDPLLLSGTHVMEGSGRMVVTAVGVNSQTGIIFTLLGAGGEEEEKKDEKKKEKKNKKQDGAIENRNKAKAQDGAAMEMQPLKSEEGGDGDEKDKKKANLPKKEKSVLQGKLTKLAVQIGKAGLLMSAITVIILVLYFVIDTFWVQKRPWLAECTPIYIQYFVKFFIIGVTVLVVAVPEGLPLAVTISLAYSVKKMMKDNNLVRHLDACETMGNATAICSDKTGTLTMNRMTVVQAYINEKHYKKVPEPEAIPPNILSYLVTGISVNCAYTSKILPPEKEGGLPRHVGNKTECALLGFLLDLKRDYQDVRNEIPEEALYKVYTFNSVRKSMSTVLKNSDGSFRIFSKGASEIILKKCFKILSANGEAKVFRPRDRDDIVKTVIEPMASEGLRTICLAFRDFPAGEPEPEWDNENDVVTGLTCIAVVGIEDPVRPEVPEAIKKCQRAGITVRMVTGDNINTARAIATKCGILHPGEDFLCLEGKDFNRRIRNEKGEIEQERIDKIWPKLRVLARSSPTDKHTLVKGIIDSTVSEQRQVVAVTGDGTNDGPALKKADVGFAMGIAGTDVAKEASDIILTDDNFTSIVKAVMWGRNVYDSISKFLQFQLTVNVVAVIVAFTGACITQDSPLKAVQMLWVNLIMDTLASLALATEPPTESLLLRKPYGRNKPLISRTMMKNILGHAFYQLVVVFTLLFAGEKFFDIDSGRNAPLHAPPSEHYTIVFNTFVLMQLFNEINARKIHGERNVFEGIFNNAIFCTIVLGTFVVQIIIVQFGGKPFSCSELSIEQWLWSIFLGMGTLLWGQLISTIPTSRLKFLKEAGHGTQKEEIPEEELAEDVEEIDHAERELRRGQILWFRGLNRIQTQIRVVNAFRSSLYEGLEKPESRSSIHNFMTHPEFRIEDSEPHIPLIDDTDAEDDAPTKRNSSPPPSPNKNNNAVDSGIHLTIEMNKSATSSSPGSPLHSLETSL

Compound	SILAC ratio Akr1c13 ([1]; competitor 25 μM)	SILAC ratio, LPCAT3 (Q6P1A2) ([2]; competitor 25 μM)	SILAC ratio, Lpcat3 ([2]; competitor 25 μM)	SILAC ratio Zmpste24 ([3]; competitor 25 μM)	SILAC ratio Atp2b1 ([4]; competitor 25 μM)	further results
CCCCC/C=C\C/C=C\C/C=C\C/C=C\CCCC(=O)NCCO [AEA, anandamide, reference compound]						SILAC ratio Akr1c13 ([1]; competitor 200 μM): 1.7; SILAC ratio, LPCAT3 (Q6P1A2) ([2]; competitor 200 μM): 1.4; SILAC ratio, Lpcat3 ([2]; competitor 200 μM): 1.4; SILAC ratio Zmpste24 ([3]; competitor 200 μM): 1.7; SILAC ratio Atp2b1 ([4]; competitor 200 μM): 1.6
O=C(/C=C/c1cccnc1)NCCCCC1CCN(C(=O)c2ccccc2)CC1 [FK-866, reference compound]	1.0	2.3	2.3	1.1	1.2	
CN1CCN(C(=O)c2c(-c3ccccc3)c3cc([N+](=O)[O-])ccc3n2C)CC1 [KML110, (1-Methyl-5-nitro-3-phenyl-1H-indol-2-yl)(4-methylpiperazin-1-yl)methanone]	1.1		1.3	1.4	1.8	
CN1CCN(C(=O)c2[nH]c3ccc([N+](=O)[O-])cc3c2-c2ccccc2)CC1 [MJN228, (4-Methylpiperazin-1-yl)(5-nitro-3-phenyl-1H-indol-2-yl)methanone]	1.0		1.2	1.2	1.4	SILAC ratio Akr1c13 ([1]; competitor 50 μM): 1.0; SILAC ratio, Lpcat3 ([2]; competitor 10 μM): 1.2; SILAC ratio, Lpcat3 ([2]; competitor 50 μM): 1.4; SILAC ratio, Lpcat3 ([2]; competitor 100 μM): 1.5; SILAC ratio Zmpste24 ([3]; competitor 10 μM): 1.1; SILAC ratio Zmpste24 ([3]; competitor 50 μM): 1.3; SILAC ratio Zmpste24 ([3]; competitor 100 μM): 1.9; SILAC ratio Atp2b1 ([4]; competitor 10 μM): 1.1; SILAC ratio Atp2b1 ([4]; competitor 50 μM): 1.4; SILAC ratio Atp2b1 ([4]; competitor 100 μM): 1.7
C=CCN(C)CCCCCCOc1ccc(C(=O)c2ccc(Br)cc2)c(F)c1 [Ro 48-8071, reference compound]	1.0	1.1	1.1	1.0	1.1	
